Values of other authors as cited in patent US6974895B1, “Transgenic legume plants modified to produce resveratrol glucoside and uses thereof” (The Samuel Roberts Noble Foundation, Inc., priority 1999, dated 2005).

System: aberrant colon crypt formation
Details: azoxymethane treated rat model (Steele, et al. 1998)

## Oc1ccc(C=Cc2cc(O)cc(O)c2)cc1 [resveratrol, 3,5,4′-trihydroxystilbene]
  inhibition of aberrant colon crypt formation: significant inhibition
